Laboratory results taken from PMC11842588, “A first-in-class selective inhibitor of ERK1/2 and ERK5 overcomes drug resistance with a single-molecule strategy” (Signal Transduction and Targeted Therapy, 2025).
Like-named read-outs stand apart in the source and are kept apart here.

Tests used:
[1] = molecular target: ERK1 (Homo sapiens, UniProt P27361); experiment: ADP-Glo kinase assay; format: biochemical
Protocol: (§1) The full-length human ERK1 or ERK2 with His-tag was cloned into a pET28a vector. hERK1/2 were expressed in Escherichia coli BL21(DE3), and then were purified using sequential Ni-NTA and Superdex 200 column steps. The SEC purified sample was then concentrated to 10 mg/ml and stored at −80 °C with buffer containing 20 mM HEPES pH 7.5, 150 mM NaCl. ERK5 (residues 48–395) containing His and GST tags was cloned into the pFastBac vector, and the recombinant plasmid was extracted. The recombinant plasmid was transformed into the DH10bac strain, and monoclonal was selected for culture. The recombinant Bacmid was then extracted according to the instructions of the Baculovirus Shuttle Vector Bacmid Mini Preparation Kit (Beyotime) and validated by PCR. 1 × 10^6/well Sf9 cells were counted for transfection and then amplified to obtain P3 ERK5 recombinant baculovirus. It was added to 2 × 10^6/mL Sf9 cells and incubated at 27 °C for 72 h on a shaker to express ERK5. Cells were lysed and supernatant was collected on a Ni-NTA for purification, and a 250 mM imidazole eluate was collected. Next, digestion by TEV protease was performed overnight while dialysis was performed in approximately 1000 mL of imidazole-free buffer. The digested ERK5 protein was sequentially purified on the Ni-NTA and GST-tag Purification Resin, followed by size exclusion chromatography on a Superdex 75 column. ERK5 protein was collected and concentrated to 12 mg/ml and stored at −80 °C in buffer containing 50 mM HEPES pH 8.0, 200 mM NaCl, 10% (v/v) glycerol.
(§2) ERK1/2/5 kinase activity assay was conducted using ADP-Glo™ Kinase Assay. 2× ATP solution and 2× kinase & Metal solution were prepared using assay buffer were prepared using assay buffer containing 50 mM Hepes pH 7.5, 10 mM MgCl2; 0.01% Brij35, 1 mM EGTA, 2 mM DTT. Transfer 40 nL compounds to 384 assay plate. Add 2 μL of 2× kinase & Metal solution were mixed and incubated in a 384-assay plate for 10 min at 25 °C. 2 μL of 2×ATP solution was added and incubated at 25 °C for 60 min. And then, each well was supplemented with 4 µL of ADP-Glo^TM reagent and incubated at 25 °C for 40 min. Subsequently, 8 µL of Kinase Detection Reagent was added and incubated at 25 °C for 40 min. Finally, the luminescence signals were recorded. The IC50 values were calculated using GraphPad Prism 9.5 software.

[2] = molecular target: ERK2 (Homo sapiens, UniProt P28482); experiment: ADP-Glo kinase assay; format: biochemical
Sequence of ERK2 (P28482 whole entry): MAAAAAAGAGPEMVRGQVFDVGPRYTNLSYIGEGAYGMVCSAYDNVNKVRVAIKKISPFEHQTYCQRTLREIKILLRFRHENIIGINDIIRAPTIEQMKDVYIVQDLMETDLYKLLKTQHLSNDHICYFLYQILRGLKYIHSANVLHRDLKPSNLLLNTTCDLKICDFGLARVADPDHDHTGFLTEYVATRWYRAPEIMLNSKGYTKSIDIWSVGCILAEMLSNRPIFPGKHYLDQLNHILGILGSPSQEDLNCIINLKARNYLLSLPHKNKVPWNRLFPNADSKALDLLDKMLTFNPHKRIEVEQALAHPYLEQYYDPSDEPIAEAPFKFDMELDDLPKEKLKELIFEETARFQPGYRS
Protocol: as §1, §2

[3] = molecular target: ERK5 (Homo sapiens, UniProt Q13164); experiment: ADP-Glo kinase assay; format: biochemical
Sequence of ERK5 (Q13164 whole entry): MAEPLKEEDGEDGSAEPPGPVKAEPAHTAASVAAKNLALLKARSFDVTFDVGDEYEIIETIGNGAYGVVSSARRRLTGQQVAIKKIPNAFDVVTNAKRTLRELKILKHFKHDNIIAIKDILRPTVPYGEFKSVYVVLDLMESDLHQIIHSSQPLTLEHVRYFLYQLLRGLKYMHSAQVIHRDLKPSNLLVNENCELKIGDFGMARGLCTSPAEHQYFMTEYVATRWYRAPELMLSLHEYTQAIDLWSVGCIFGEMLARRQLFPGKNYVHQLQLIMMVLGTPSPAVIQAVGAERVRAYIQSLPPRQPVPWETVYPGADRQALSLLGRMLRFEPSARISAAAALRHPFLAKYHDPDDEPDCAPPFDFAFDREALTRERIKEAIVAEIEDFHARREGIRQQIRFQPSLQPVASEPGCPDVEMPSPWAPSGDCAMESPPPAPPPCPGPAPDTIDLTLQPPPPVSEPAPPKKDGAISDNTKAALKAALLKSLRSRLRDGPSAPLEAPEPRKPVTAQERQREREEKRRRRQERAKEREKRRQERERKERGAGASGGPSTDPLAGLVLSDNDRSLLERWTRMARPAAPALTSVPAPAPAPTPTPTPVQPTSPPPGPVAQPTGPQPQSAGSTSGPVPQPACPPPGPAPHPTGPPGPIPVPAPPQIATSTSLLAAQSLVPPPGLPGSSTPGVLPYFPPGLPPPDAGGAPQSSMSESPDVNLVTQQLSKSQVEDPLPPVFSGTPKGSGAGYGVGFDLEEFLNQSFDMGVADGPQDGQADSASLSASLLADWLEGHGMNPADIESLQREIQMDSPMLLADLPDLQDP
Protocol: as §1, §2

[4] = Liver microsome metabolic stability; format: in vitro ADME
Protocol: An appropriate amount of SD rat and human liver microsomal solution was incubated at 37 °C with a specified concentration of candidate compounds for 5 min, and then NADPH reaction system was added to initiate metabolic reaction. The reaction was terminated at a series of time points by adding acetonitrile solution containing an internal standard compound. Centrifuge at 12,000 rpm for 20 min, take the supernatant solution, and place it in a vacuum centrifuge to dry. After acetonitrile was dissolved, the supernatant solution was centrifugated, and the remaining compounds were quantified by LC-MS to evaluate the metabolic stability of liver microsomes.

[5] = Pharmacokinetic study; format: in vivo; details: rat, plasma, SD rats; for Vd: SD, 1 mg/kg
Protocol: SKLB-D18 was formulated using a composition of 10% DMSO, 10% Solutol, and 80% (20% HP-β-CD). SKLB-D18 was administered via intravenous injection (1 mg/kg) and intragastric administration (10 mg/kg) on SD rats. At various time points post-administration (0.25 h, 0.5 h, 1 h, 2 h, 4 h, 6 h, 8 h, 24 h), blood samples (0.2 mL) were collected and centrifuged (6800 × g, 6 min, 2–8 °C) to separate plasma. Plasma samples were precipitated with methanol, vortexed, and centrifuged (18,000 × g, 4 °C, 7 min); the supernatant was analyzed using LC-MS/MS. Parameters such as AUC0-t, AUC0-∞, Cmax, Tmax, and T1/2 were calculated using Phoenix WinNonlin 7.0.

[6] = tested on: MEK1/2 and MEK5; experiment: Immunoblotting of upstream MEK activity; format: cell-based; details: up to 5 μM, 24 h
Protocol: Then, the cells were washed twice with PBS and stimulated with cell lysis buffer. After 13,000 rpm centrifugation for 20 min, an enhanced bicinchoninic acid (BCA) protein assay kit was (Beyotime Biotechnology, Jiangsu, China) used to quantify the protein level of the supernatural. […] Furthermore, membranes were blocked with 5% skim milk. The membranes were incubated by the corresponding primary antibodies. After being washed twice with TBST solution, the membranes were incubated with horseradish peroxidase (HRP)-conjugated secondary antibodies and visualized by employing ECL ([…]) as the HRP substrate.

Sequence of ERK1 (P27361 whole entry, the tested form may be a part): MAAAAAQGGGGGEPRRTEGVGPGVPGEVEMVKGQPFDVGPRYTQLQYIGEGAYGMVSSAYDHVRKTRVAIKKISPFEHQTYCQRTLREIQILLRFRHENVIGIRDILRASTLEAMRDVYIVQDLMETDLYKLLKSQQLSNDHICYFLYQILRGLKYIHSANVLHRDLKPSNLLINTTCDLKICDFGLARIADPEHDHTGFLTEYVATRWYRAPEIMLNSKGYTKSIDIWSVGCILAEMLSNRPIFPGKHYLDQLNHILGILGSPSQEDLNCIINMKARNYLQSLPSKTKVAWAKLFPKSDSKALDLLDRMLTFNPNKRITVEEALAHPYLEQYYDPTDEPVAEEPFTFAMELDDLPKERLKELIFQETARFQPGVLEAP

Structure (SMILES): CN(C)Cc1cccc(Nc2ncc(Cl)c(-c3csc(C(=O)NN4CCOCC4)c3)n2)c1 [SKLB-D18, 4-(5-chloro-2-((3-((dimethylamino)methyl)phenyl)amino)pyrimidin-4-yl)-N-morpholinothiophene-2-carboxamide]
- IC50 ([1]; ADP-Glo): 38.7 ± 0.62 nM
- inhibition at 0.5 µM ([1]; read-out: Enzyme inhibitory activity (500 nM, %) ERK1): 95.62 ± 0.84%
- IC50 ([2]; ADP-Glo): 40.1 ± 0.95 nM
- inhibition at 0.5 µM ([2]; read-out: Enzyme inhibitory activity (500 nM, %) ERK2): 93.2 ± 1.45%
- IC50 ([3]; ADP-Glo): 59.7 ± 1.21 nM
- inhibition at 0.5 µM ([3]; read-out: Enzyme inhibitory activity (500 nM, %) ERK5): 93.1 ± 1.03%
- Residual rate (%) ([4]; SD rat liver microsomes): 25.8%
- T1/2 ([4]; SD rat liver microsomes): 0.5418 h
- microsomal CLint ([4]; SD rat liver microsomes): 42.6 µL/min/mg
- half-life ([4]; SD, rat, liver microsomes): 0.542 h
- Residual rate (%) ([4]; human liver microsomes): 69.42%
- half-life ([4]; human liver microsomes): 1.53 h
- microsomal CLint ([4]; human liver microsomes): 15.1 µL/min/mg
- Vd ([5]; iv, i.v. 1 mg/kg, read-out: Vss): 17 ± 0.568 L/kg
- Vd ([5]; iv, i.v. 1 mg/kg, read-out: Vz): 20.2 ± 1.38 L/kg
- AUC(0-inf) ([5]; iv, i.v. 1 mg/kg): 143 ± 6.6 ng·h/mL
- AUC(0-t) ([5]; iv, i.v. 1 mg/kg): 136 ± 5.73 ng·h/mL
- Cmax ([5]; iv, i.v. 1 mg/kg): 58.7 ± 7.22 ng/mL
- half-life ([5]; iv, i.v. 1 mg/kg): 2.01 ± 0.16 h
- clearance ([5]; iv, i.v. 1 mg/kg, read-out: CL (mL/(min·kg))): 117 ± 5.45 mL/min/kg
- bioavailability ([5]; oral, p.o. 10 mg/kg vs i.v. 1 mg/kg): 22.4%
- AUC(0-inf) ([5]; po, p.o. 10 mg/kg): 457 ng·h/mL
- AUC(0-t) ([5]; po, p.o. 10 mg/kg): 304 ng·h/mL
- Cmax ([5]; po, p.o. 10 mg/kg): 53.7 ng/mL
- half-life ([5]; po, p.o. 10 mg/kg): 3.71 h
- changes in the activity of upstream MEK1/2 and MEK5 [6]: did not cause any changes
